Reference: US20080299599A1, “FLUORESCENT PROTEINS FOR MONITORING INTRACELLULAR SUPEROXIDE PRODUCTION” (priority 2006, published 2008)
Read-outs that look alike come from different tables or passages of the source.

Key:
[1] = system: rat PC12 pheochromocytoma cells; format: cell-based; settings: for occurrence of superoxide flashes: ρ− PC12 cells; for incidence of superoxide flashes: ethidium bromide 200 ng/ml for 60 days, PC12 cells
Excerpt: (§1) Enzymatically isolated rat ventricular myocytes and hippocampal neurons in primary culture were infected with adenovirus carrying the mt-cpYFP gene or its mutants at an m.o.i. of 1:100 and cultured for 2 to 3 days (Zhou et al., Am. J. Physiol. Heart Circ. Physiol., 279; H429-H436, 2000). Similar conditions were used when expressing mt-cpYFP in other cell types. To obtain spatially and temporally resolved fluorescent images of mt-cpYFP, a Zeiss LSM 510 confocal microscope equipped with a 63×, 1.3NA oil immersion objective and a sampling rate of 0.7 s/frame was used. Dual wavelength excitation imaging of mt-cpYFP was achieved by alternating excitation at 405 and 488 nm and collecting emission at >505 nm. Tri-wavelength excitation imaging of mt-cpYFP and TMRM (20 nM) or rhod-2 was achieved by tandem excitation at 405, 488, and 543 nm, and the emission was collected at 515-550, 515-550 and >560 nm, respectively. To increase mitochondrion retention of rhod-2, the indicator loading protocol described by Hajnoczky C et al. was used with modification (Hajnoczky et al., Cell, 82: 415-424, 2000). Briefly, cells were loaded with 4 μM rhod-2 AM (after NaBH4 quenching) at 4° C. for 1 hr, and then changed to normal culture medium for 4 hrs. The standard extracellular perfusion solution contained (in mM): NaCl 137, KCl 4.9, CaCl21, MgSO4 1.2, NaH2PO4 1.2, glucose 15, and HEPES 20 (pH 7.4). Digital image processing was performed using IDL software (Research Systems) and customer-devised programs.
(§2) ρ° 143B TK human osteosarcoma cells and its wild type control were a generous gift from Dr. Nadja C. de Souza-Pinto (National Institute on Aging, NIH). Wild type and ρ° 143B cells were cultured under identical conditions, in DMEM medium supplemented with 10% FBS, 100 μg/ml pyruvate, 100 μg/ml bromodeoxyuridine and 50 μg/ml uridine17. Mitochondria of ρ° 143B cells completely lack mitochondrial respiration, due to the loss of critical ETC proteins including constituents of complex I (ND1-6, ND4L), complex III (cytochrome b) and complex IV (COX I-III) encoded by mitochondrial DNA. To partially deplete mitochondrial DNA and allow partial disruption of mitochondrial respiration, PC12 pheochromocytoma cells were cultured in DMEM medium with 10% FBS, 200 ng/ml ethidium bromide, 100 μg/ml pyruvate and 50 μg/ml uridine for up to 60 days. Depletion of mitochondrial DNA was evidenced by western blot analysis of cytochrome C oxidase subunit I.

[2] = system: superoxide flashes in rat cardiac myocytes; test: Confocal imaging of superoxide flashes in cardiac myocytes expressing mt-cpYFP; format: cell-based; settings: for occurrence of superoxide flashes: cardiac myocytes
Procedure: Similar conditions were used when expressing mt-cpYFP in other cell types. […] Briefly, cells were loaded with 4 μM rhod-2 AM (after NaBH4 quenching) at 4° C. for 1 hr, and then changed to normal culture medium for 4 hrs. […] Digital image processing was performed using IDL software (Research Systems) and customer-devised programs.

[3] = system: ρ° 143B TK-human osteosarcoma cells; test: Superoxide flashes in mitochondrial DNA-deleted ρ° 143B cells; format: cell-based; settings: atractyloside 20 μM
Excerpt: as §1, with “Digital image processing was performed using IDL software (Research Systems) and customer-devised programs.” left out

[4] = system: superoxide flashes in cardiac myocytes; test: Superoxide flashes in cardiac myocytes during hypoxia and reoxygenation; format: cell-based, rat; settings: diazoxide 30 μM added 20 min prior to hypoxia
Excerpt: as §1, with “Digital image processing was performed using IDL software (Research Systems) and customer-devised programs.” left out

[5] = system: cytochrome C oxidase subunit I (COX-1); test: Western blot of cytochrome C oxidase subunit I in ethidium bromide-treated PC12 cells; format: cell-based, rat; settings: ethidium bromide 200 ng/ml for 60 days
Procedure: as §2

cellular ROS production = settings: previous finding, Aon et al. 2003; cited from earlier work
[6] = Spectral analysis of purified cpYFP: in vitro redox calibration and response to ROS and metabolites; format: biochemical
Procedure: cpYFP cDNA (807 bp) was cloned into a prokaryotic expression vector (pRSET) and transferred into E. Coli cell line (BL21(DE3)LysS) for large-scale protein expression. In vitro redox calibration of cpYFP fluorescence was carried out using methods described previously (Hanson et al., J. Biol. Chem., 279: 13044-13053, 2004). Briefly, under an inert environment, purified cpYFP protein (1 μM) was incubated with either 10 mM reduced DTT or 1 mM aldrithiol for at least 3 hours, allowing for solution equilibration. Reduced DTT was removed from the solution allowing measurement of cpYFP response to various ROS and metabolites. The calibration solution contained (in mM): HEPES 75, KCl 125, and EDTA 1, pH=8.0. Emission and excitation spectra of reduced and oxidized cpYFP in the presence of designated reagents were obtained with a spectrofluorimeter (Model: CM1T101, HORIBA Jobin Yvon, Inc.) filled with nitrogen gas.
Using cpYFP purified from an E. coli expression system, excitation and emission fluorescence spectra were measured in response to reducing (10 mM reduced DTT) and oxidizing manipulations (1 mM aldrithiol). […] Extensive in vitro experiments were performed to determine the selectivity of cpYFP among physiologically relevant oxidants and metabolites. […] The cpYFP signal, however, was insensitive to hydrogen peroxide (H2O2) over a wide range of concentrations (0.1-10 mM) (FIG. 1c) and peroxynitrite (FIG. 2), and was decreased by hydroxyl radicals (.OH) (FIG. 1c) and nitric oxide (FIG. 2).

Compound: C=C(C)[C@H]1Cc2c(ccc3c2O[C@@H]2COc4cc(OC)c(OC)cc4[C@@H]2C3=O)O1 [Rotenone]
- occurrence of superoxide flashes ([1]; rotenone 5 μM): virtually abolished
- occurrence of superoxide flashes ([2]; rotenone 5 μM): virtually abolished

Compound: C=C1[C@@H]2CC[C@H]3[C@]4(C)C[C@H](O[C@@H]5O[C@H](CO)[C@@H](OS(=O)(=O)O)[C@H](OS(=O)(=O)O)[C@H]5OC(=O)CC(C)C)C[C@@H](C(=O)O)[C@H]4CC[C@]3(C2)[C@H]1O [atractyloside]
- rescue of superoxide flashes in ρ° cells [3]: cannot be rescued
- effect on superoxide flash frequency ([2]; atractyloside 20 μM): significantly augment superoxide flash frequency

Compound: CO[C@H](C/C=C\C=C\CC/C=C/C[C@H](C)/C=C/C(=C\C(=O)O)CC(=O)O)/C(C)=C\C=C(/C)C(=O)O [bongkrekic acid]
- effect on superoxide flash amplitude ([2]; bongkrekic acid 100 μM): reducing their amplitude
- effect on superoxide flash kinetics ([2]; bongkrekic acid 100 μM): abbreviating their kinetics
- incidence of superoxide flashes ([2]; bongkrekic acid 100 μM): 33 % of control

Compound: CC1=NS(=O)(=O)c2cc(Cl)ccc2N1 [diazoxide]
- effect on rebound flurry of superoxide flash activity after reoxygenation [4]: effectively protected the cells from the rebound flurry of superoxide flash activity

Compound: CC[n+]1c(-c2ccccc2)c2cc(N)ccc2c2ccc(N)cc21 [ethidium bromide]
- incidence of superoxide flashes [1]: 60 % of control
- incidence of superoxide flashes ([1]; wild type 63±6): 23±3 events per 1000 μm2 cell area per 100 s
- cytochrome C oxidase subunit I (COX-1) expression [5]: 70 % of control

Compound: O=S(=O)(O)c1cc(O)c(O)c(S(=O)(=O)O)c1 [tiron]
- effect on frequency and amplitude of flashes ([2]; tiron 1 mM): similarly diminished the frequency and amplitude of flashes

Compound: C160A/C182A: SEQ ID NO. 1 with both cysteines C160 and C182 substituted to alanine
- response of the probe to superoxide after cysteine substitution ([2]; residue numbering of SEQ ID NO. 1): completely abolishes the response of the probe to superoxide

Compound: MnTMPyP
- inhibition of flash activity ([2]; MnTMPyP 50 μM): 83%
- flash amplitude (ΔF/F0) ([2]; MnTMPyP 50 μM, n=12, p<0.01 vs control): 0.18±0.02

Compound: antimycin A
- effect on cellular ROS production measured with DCF (cellular ROS production): increases cellular ROS production
- occurrence of superoxide flashes ([1]; antimycin A 5 μg/ml): virtually abolished
- occurrence of superoxide flashes ([2]; antimycin A 5 μg/ml): virtually abolished

Compound: cpYFP: circularly permuted yellow fluorescent protein; superoxide probe of SEQ ID NO. 1, pericam without calmodulin and M13 domains
- brightness of oxidized cpYFP versus fully reduced species ([6]; 1 mM aldrithiol vs 10 mM reduced DTT, excited at 488 nm): about five times brighter
- cpYFP signal response to other metabolites ([6]; ATP, ADP, NAD(P)+, NAD(P)H and Ca2+ at physiological concentrations): negligible or only marginal effects
- cpYFP signal response to hydroxyl radicals ([6]; Fenton reaction, 1 mM H2O2 plus 0.1 mM FeSO4, anaerobic): decreased
- cpYFP signal response to hydrogen peroxide ([6]; H2O2 0.1-10 mM): insensitive
- cpYFP signal response to peroxynitrite ([6]; SIN-1 1 mM in aerobic solution): insensitive
- cpYFP signal response to nitric oxide ([6]; SIN-1 1 mM in anaerobic solution): decreased
- cpYFP brightness dependence on pH ([6]; basic environments, e.g. mitochondrial matrix pH 8.0): brighter in basic environments
- increase of cpYFP fluorescence in response to O2.− ([6]; xanthine/xanthine oxidase (2 mM/20 mU), aerobic, compared to fully reduced state): 420%
